Values joined by “and” are separate entries in the source; they are usually repeats but may differ in a detail not shown here. Equal values may be shown once. Read-outs that look alike come from different tables or passages of the source.
Target: T1, MRGPRX4 + RAMP2 (Homo sapiens, UniProt Q96LA9)
T1 construct: expressed in transfected cells; host or cells: HEK293T
Test: IP1 accumulation, MRGPRX4 coexpressed with RAMP2
Format: cell-based
Set-up: key to response to agonist, X4:ramp2.I:2: % IP1: mock-transfected unstimulated = 0%, fully stimulated MRGPRX4 = 100%; key to IP1 Basal / response to agonist, X4:ramp2.I:0.25 / response to agonist, X4:ramp2.I:0.5 / response to agonist, X4:ramp2.I:1: % IP1; unstimulated mock = 0%, fully stimulated MRGPRX4 = 100%
Details: for Emax: read-out: IP1 Emax; for IP1 accumulation (normalized): MRGPRX4+RAMP2 1pg 1:1, Supplementary Figure 5e, 5g
Experimental: HEK293T cells were transfected with 1 pg/cell of MRGPRX4 DNA, and the amount of DNA was kept constant at 2 pg/cell with pcDNA3.1(+) empty vector, unless otherwise specified. Twenty four hours after transfection, IP1 assay was performed as previously described ([51]). When applicable, cells were treated with 1 μM YM254890 (YM) or different concentrations of U73122 for 1 h prior to addition of agonist or buffer. After incubation for 2 h, HTRF reagents and IP1 calibration standards were added and incubated for 2 h in the dark at room temperature. Time-resolved fluorescence signals were read on the BioTek Synergy NEO-TRF Hybrid multi-mode reader (BioTek Instruments). All data were carried out in three independent experiments with three technical replicate each.
For RAMP DNA titration assay, HEK293T cells were cotransfected with a constant amount of 1 pg/cell of FLAG-MRGPRX4-GFP10-1D4 to which a serial dilution of 1, 0.75, 0.5, 0.25, or 0 pg/cell of each HA-RAMP-OLLAS was added. For a homogenous transfection of MRGPRX4, a master mix of MRGPRX4 DNA was made prior to addition of the RAMP DNA. […]
Data reduction, standard calibration, and transformation of HTRF data were performed as previously described ([51]). Normalized IP1 values were calculated relative to the unstimulated mock-transfected cells (set to 0%) and fully stimulated MRGPRX4 (alone if applicable) (set to 100%).

[1] = MRGPRX4 + RAMP2 0.25 pg (Fig. S3), normalized per agonist
[2] = MRGPRX4 + RAMP2 0.5 pg (Fig. S3), normalized per agonist
[3] = MRGPRX4 + RAMP2 1 pg (Fig. S3), normalized per agonist
[4] = MRGPRX4 + RAMP2 2 pg (Fig. S3), normalized per agonist
[5] = Tet-On MRGPRX4:RAMP2 Ratio 1:0.5 (Fig. S5E)
[6] = Tet-On MRGPRX4:RAMP2 Ratio 1:0.75 (Fig. S5E)
[7] = Tet-On MRGPRX4:RAMP2 Ratio 1:1 (Fig. S5E)

T1 sequence (Q96LA9 whole entry): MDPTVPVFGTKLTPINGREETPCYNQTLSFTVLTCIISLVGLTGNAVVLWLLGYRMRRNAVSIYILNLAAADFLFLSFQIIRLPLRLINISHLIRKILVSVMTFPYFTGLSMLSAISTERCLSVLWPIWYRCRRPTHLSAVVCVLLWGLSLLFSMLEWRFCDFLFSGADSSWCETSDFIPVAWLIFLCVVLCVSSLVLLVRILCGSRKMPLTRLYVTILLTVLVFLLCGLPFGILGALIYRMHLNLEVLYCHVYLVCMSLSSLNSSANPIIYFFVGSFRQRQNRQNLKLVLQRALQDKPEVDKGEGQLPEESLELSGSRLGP

CC(C)[C@H]1CC[C@H](C(=O)N[C@H](Cc2ccccc2)C(=O)O)CC1 [Nateglinide]
EC50 (Figure 4a top, DNA ratio MRGPRX4:RAMP2 1:0.25, individual replicates, read-out: potency (converted)): 9.57 µM and 9.23 µM (2×)
EC50 (Figure 4a top, DNA ratio MRGPRX4:RAMP2 1:0.5, individual replicates, read-out: potency (converted)): 15.1 µM and 11.3 µM and 13.1 µM
EC50 (Figure 4a top, DNA ratio MRGPRX4:RAMP2 1:0.75, individual replicates, read-out: potency (converted)): 15.4 µM and 13.9 µM and 10.4 µM
EC50 (Figure 4a top, DNA ratio MRGPRX4:RAMP2 1:1, individual replicates, read-out: potency (converted)): 39.9 µM and 19.4 µM and 24.3 µM
response to agonist, X4:ramp2.I:0.25 (Figure 4c-f, agonist 100µM, X4:ramp2 1:0.25, MRGPRX4 = 100): 71.8475 and 74.3589
response to agonist, X4:ramp2.I:0.5 (Figure 4c-f, agonist 100µM, X4:ramp2 1:0.5, MRGPRX4 = 100): 61.7207 and 60.1764
response to agonist, X4:ramp2.I:1 (Figure 4c-f, agonist 100µM, X4:ramp2 1:1, MRGPRX4 = 100): 42.7283 and 40.01
response to agonist, X4:ramp2.I:2 (Figure 4c-f, agonist 100µM, X4:ramp2 1:2, MRGPRX4 = 100): 16.754 and 20.2407
IP1 Basal [1]: 16.83
IP1 span (Emax minus basal) [1]: 84.5%
EC50 (MRGPRX4 + RAMP2 0.25 pg (Fig. S3), normalized per agonist, read-out: IP1 EC50): 11.8 µM
Emax [1]: 101%
IP1 Basal [2]: 13.85
IP1 span (Emax minus basal) [2]: 55.7%
Emax [2]: 69.5%
EC50 (MRGPRX4 + RAMP2 0.5 pg (Fig. S3), normalized per agonist, read-out: IP1 logEC50 (converted)): 6.68 µM
IP1 Basal [3]: 8.724
IP1 span (Emax minus basal) [3]: 37.8%
Emax [3]: 46.5%
EC50 (MRGPRX4 + RAMP2 1 pg (Fig. S3), normalized per agonist, read-out: IP1 logEC50 (converted)): 9.29 µM
IP1 Basal [4]: 3.623
IP1 span (Emax minus basal) [4]: 25.2%
EC50 (MRGPRX4 + RAMP2 2 pg (Fig. S3), normalized per agonist, read-out: IP1 EC50): 26.6 µM
Emax [4]: 28.8%
IP1 Basal [5]: 7.610
IP1 span (Emax minus basal) [5]: 68%
EC50 (Tet-On MRGPRX4:RAMP2 Ratio 1:0.5 (Fig. S5E), read-out: IP1 EC50): 8.76 µM
Emax [5]: 75.6%
IP1 Basal [6]: 4.862
IP1 span (Emax minus basal) [6]: 63.1%
EC50 (Tet-On MRGPRX4:RAMP2 Ratio 1:0.75 (Fig. S5E), read-out: IP1 EC50): 10.5 µM
Emax [6]: 67.9%
EC50 (Tet-On MRGPRX4:RAMP2 Ratio 1:0.75 (Fig. S5E), read-out: IP1 logEC50 (converted)): 10.5 µM
IP1 Basal [7]: 3.554
IP1 span (Emax minus basal) [7]: 52.2%
EC50 (Tet-On MRGPRX4:RAMP2 Ratio 1:1 (Fig. S5E), read-out: IP1 EC50): 16.7 µM
Emax [7]: 55.7%
IP1 accumulation (normalized) (log [nateglinide] (M) -4): 49.0479 and 42.2633 and 46.2108
IP1 accumulation (normalized) (log [nateglinide] (M) -4.69897): 35.8073 and 28.8485 and 29.8595
IP1 accumulation (normalized) (log [nateglinide] (M) -5.39794): 15.3369 and 12.9717 and 15.4367
IP1 accumulation (normalized) (log [nateglinide] (M) -6.09691): 5.582 and 4.886 and 4.986
IP1 accumulation (normalized) (log [nateglinide] (M) -6.79588): 3.625 and 3.074 and 3.358
